According to patent publication US12486298B2, “Fucosyltransferase specific inhibition using fucose mimetics” (THE FLORIDA INTERNATIONAL UNIVERSITY BOARD OF TRUSTEES, priority 2020, dated 2025):

Columns and labels:
[1] = target: T1, human fucose-binding DC-SIGN lectin (Homo sapiens, UniProt Q9NNX6); assay: Recognition by DC-SIGN lectin
T1 sequence (Q9NNX6 1-404): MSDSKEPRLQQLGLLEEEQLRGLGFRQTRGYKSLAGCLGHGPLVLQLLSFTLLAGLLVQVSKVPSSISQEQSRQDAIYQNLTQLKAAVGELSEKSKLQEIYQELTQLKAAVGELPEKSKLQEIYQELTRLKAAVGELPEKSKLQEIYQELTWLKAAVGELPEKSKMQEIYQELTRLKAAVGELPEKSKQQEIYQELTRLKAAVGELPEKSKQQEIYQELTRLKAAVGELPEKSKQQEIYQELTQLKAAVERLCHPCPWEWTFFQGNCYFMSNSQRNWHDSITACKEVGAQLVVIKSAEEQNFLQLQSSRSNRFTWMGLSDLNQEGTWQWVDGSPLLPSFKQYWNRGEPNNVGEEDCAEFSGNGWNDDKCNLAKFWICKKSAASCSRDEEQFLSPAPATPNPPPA

[2] = target: T2, fucosyltransferase VI (FTVI) (Homo sapiens, UniProt P51993); assay: FTVI exofucosylation of RPMI-8402 cells, sLe^x and Le^x by flow cytometry; type: cell-based
T2 construct: purchased R&D systems
T2 sequence (P51993 35-359 limits assumed): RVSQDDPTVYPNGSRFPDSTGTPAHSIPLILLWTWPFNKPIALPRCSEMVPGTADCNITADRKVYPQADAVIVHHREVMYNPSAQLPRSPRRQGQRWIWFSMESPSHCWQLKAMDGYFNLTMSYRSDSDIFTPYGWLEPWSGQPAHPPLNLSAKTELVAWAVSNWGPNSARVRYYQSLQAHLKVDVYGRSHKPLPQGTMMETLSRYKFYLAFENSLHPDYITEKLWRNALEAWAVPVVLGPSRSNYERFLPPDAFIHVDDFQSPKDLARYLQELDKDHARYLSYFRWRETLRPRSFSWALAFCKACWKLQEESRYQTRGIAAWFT
Procedure: A titration of GDP-Fucose was carried out to determine the maximum mean fluorescent intensity (MFI) of sLe^X and Le^X via flow cytometry for downstream inhibition experiments. Generally, 1×10^6 cells were used in each FTVI exofucosylation reaction and all reactions were carried out in triplicate. Cells were then stained with either Alexa-Fluor 488 Mouse Anti-Human CD15s (BD Biosciences), or APC anti-human CD15 (SSEA-1) Antibody (BioLegend). Cells were then acquired on a Canto II (BD Biosciences) flow cytometer and analylized using Flowjo software (Treestar). FTVI was purchased from R&D systems.
A Canto II (BD Biosciences) flow cytometer was utilized for flow cytometry and the data acquired was analyzed using FlowJo Software (Treestar). Cells were stained using antibodies specific to sLe^X (Alexa-Fluor 488 Mouse Anti-Human CD15s (BD Biosciences)), or Le^X (APC anti-human CD15 (SSEA-1) Antibody (BioLegend)).
Cells of the RPMI-8402 cell line and MSC cell line were treated with either 0.3 ug of fucosyltransferase VI (FTVI), 2.7 ug of fucosyltransferase VII (FTVII), 1.0 ug fucosyltransferase IX (FTIX) or buffer-only at 37° C. for 60 minutes. All reactions contained at 1×10^6 cells/30 ul in HBSS with 10 mM Hepes, 0.1% Human Serum Albumin, and 1.0 mM GDP fucose (GDP-Fuc) (Carbosynth) and the appropriate fucosytransferase. Then, mimetic 1 was added to each of the treatment groups in molar equivalents with respect to GDP-Fuc with each of the fucosytransferases. The treatment groups were as follows: 1:1 GDP-Fuc to mimetic 1 (i.e., 1.0 mM GDP-Fuc and 1.0 mM mimetic), 1:2 GDP-Fuc to mimetic 1 (i.e., 1.0 mM GDP-Fuc and 2.0 mM mimetic), or preincubated in presence of FT with a 2.0 mM solution of the mimetic 1 for 45 minutes followed by addition of a 1.0 mM solution of GDP-Fuc for 1 hour. Concentrations of the various FTs were utilized that would maximize the MFI to allow the detection of the efficacy of mimetic 1 to inhibit the various enzymes.
Exofucosylation is a technique whereby a pertinent FT together with GDP-Fuc is placed in a cell suspension to stereoselectively install fucose on pertinent acceptor cell surface glycan(s). For the case of α-1,3-FTs, this approach provides the ability to pinpoint the effect(s) of mimetic addition on creation of fucosylated glycans Le^x and sLe^x, while keeping the rest of the cell's biological functions and its viability intact. Specifically, this study focused on three α-1,3-FTs that can create sLe^x and Le^x determinants: FTVII, FTIX, and FTVI. […]
Mimetic 1 (FIG. 1) was tested as an inhibitor of FT-mediated exofucosylation on these cells and the extent of fucosylation was monitored using antibodies that detect the creation of the relevant fucosylated epitopes, i.e., sLe^x or Le^x. […]

[3] = RPMI-8402 cells, 1.0 mM GDP-Fuc with 1.0 mM or 2.0 mM mimetic 1

recognition by DC-SIGN lectin [1]: not recognized
inhibition of FTVI production of Le^x [2, 3]: clearly inhibited
inhibition of FTVI production of sLe^x [2, 3]: markedly diminished
inhibition of FTVI-mediated exofucosylation after pre-incubation ([2]; pre-incubation with 2.0 mM mimetic 1 prior to addition of GDP-Fuc): inhibited more completely
concentration of highest inhibition against FTVI ([2]; titration of mimetic 1, 1.0 mM GDP-Fuc, RPMI-8402 cells, bell-shaped curve): 2.0 mM
Compound: CC1OC2Oc3ccc(CC(=O)O)cc3SC2C(O)C1O (centres unmarked) [mimetic 1]
